Source: patent publication US20240269304A1, “BCL-XL INHIBITOR ANTIBODY-DRUG CONJUGATES AND METHODS OF USE THEREOF” (Novartis AG, priority 2020, published 2024)
Like-named read-outs stand apart in the source and are kept apart here.

Assays:
Type in all cases: cell-based
ALL-SILL (T-ALL) = assay: CellTiter-Glo viability 72 h, single agent or 1/1 combination, ALL-SIL (Example 9); settings: single agent or 1/1 combination as labelled
Method in brief: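 ALL-SIL cells were incubated with payloads or ADCs, alone or in 1/1 combination, for 3 days at 37° C/5% CO2. Viability was read as cellular ATP by CellTiter-Glo luminescence, in triplicate. IC50s came from four-parameter curve fitting.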

ncih1436 = assay: In vitro ADC activity with combination partners, CellTiter-Glo 5 days, ncih1436 (Example 13); settings: single agent
Method: Antibody drug conjugates (ADCs) targeting IgG, B7H3, CD56, DLK1, DLL3, EpCAM, and SEZ6 were tested against cancer cell lines obtained from ATCC (American Type Culture Collection) or from other commercial cell line vendors (cor1279, ncih1436, ncih146, ncih211, ncih524). The cells were cultured in media that is optimal for their growth at 5% CO2, 37° C. in a tissue culture incubator. Prior to seeding for the proliferation assay, the cells were split at least 2 days before the assay to ensure optimal growth density. On the day of seeding, cells were lifted off tissue culture flasks using 0.25% trypsin. Cell viability and cell density were determined using a cell counter (Vi-Cell XR Cell Viability Analyzer, Beckman Coulter). Cells with higher than 85% viability were seeded in white clear bottom 384-well plates (Greiner cat #781098) at a density of 1000 cells per well in 50 μL of standard growth media. Plates were incubated at 37° C. overnight in a tissue culture incubator.
The ADCs were prepared in standard phosphate buffered solution to desired concentrations. A series of 10 dilutions were made for each ADC. The prepared drug treatments were then added to the cells resulting in final concentrations of 300 nM to 0.015 nM. Combination partners (Venetoclax and Topotecan) were added at fixed concentrations. Acoustic transfer devices (Echo525, Echo550, Beckman Coulter) were used to add the ADCs or combination partners to the cells. Each treatment was tested in triplicate assay plates. Plates were incubated at 37° C. overnight or for 5 days in a tissue culture incubator. The ability of the ADCs to inhibit cell proliferation and survival was assessed using the Promega CellTiter-Glo® proliferation assay. Plates were incubated at room temperature for 20 minutes to stabilize luminescent signals prior to reading using a multimode plate reader (Pherastar, BMG). Luminescent counts of untreated cells were taken the day after seeding (Day 0 readings), and after 5 days of treatment (Day 5 readings). The Day 5 readings of the untreated cells were compared to the Day 0 readings. Assays with at least one cell doubling during the incubation period were considered valid. To evaluate the effect of the drug treatments, luminescent counts from wells containing untreated cells (100% viability) were used to normalize treated samples. The concentrations of treatment required to inhibit 50% of cell growth or survival ([…]) were calculated using a four parameter logistic regression equation.

DND-41 cells = assay: CellTiterGlo (CTG) cell viability, 72 h, DND-41 (Example 8)
Method in brief: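 DND-41 cells in RPMI with 10% heat-inactivated FBS exposed to payloads or ADCs for 3 days at 37° C/5% CO2, in triplicate. Viability measured as cellular ATP by CellTiterGlo luminescence; IC50 from four-parameter fit.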

SUDHL8 (DLBCL) = assay: CellTiter-Glo viability 72 h, single agent or 1/1 combination, SUDHL8 (Example 9); settings: Homo sapiens, SU-DHL-8, single agent or 1/1 combination as labelled
Method: Cell lines were cultured in the media described above at 37° C. in a humidified atmosphere containing 5% CO2. Cells were seeded in 96 well clear bottom plates (96 well clear-bottom, white, Corning reference 3903) and exposed to the payloads or ADCs at single agents or in 1/1 combinations with vincristine, ABT-199 or compound A2 for 72 h (serially diluted; 9 concentrations each, triplicates). Effects of payloads or ADCs on cell viability were assessed after 3 days of incubation at 37° C./5% CO2 by quantification of cellular ATP levels using CellTiter-Glo reagent (Promega Ref: G7571) at 75 μL reagent/well. All the conditions were tested in triplicates. Luminescence was quantified on a multipurpose plate reader. IC50s were calculated using standard four-parametric curve fitting. […] Each experiment was performed at least twice, with results being reproducible.

IC50 (SUDHL8 (DLBCL); mean, read-out: SUDHL8 (DLBCL) IC50 mean): 0.24 nM | IC50 (SUDHL8 (DLBCL); n1, read-out: SUDHL8 (DLBCL) IC50 n1): 0.34 nM | IC50 (SUDHL8 (DLBCL); n2, read-out: SUDHL8 (DLBCL) IC50 n2): 0.14 nM
Compound: Cc1c(Nc2nc3ccccc3s2)nnc2c1CCCN2c1ccc(-c2cnn(C[C@]34C[C@]5(C)C[C@](C)(C3)C[C@@](OCCN3CCCC3)(C5)C4)c2C)c(C(=O)O)n1 [P21, 6-[3-(1,3-benzothiazol-2-ylamino)-4-methyl-6,7-dihydro-5H-pyrido[2,3-c]pyridazin-8-yl]-3-[1-[[3,5-dimethyl-7-(2-pyrrolidin-1-ylethoxy)-1-adamantyl]methyl]-5-methyl-pyrazol-4-yl]pyridine-2-carboxylic acid]
IC50 (ALL-SILL (T-ALL); mean, read-out: ALL-SILL (T-ALL) IC50 mean): 0.63 nM | IC50 (ALL-SILL (T-ALL); n1, read-out: ALL-SILL (T-ALL) IC50 n1): 0.4 nM | IC50 (ALL-SILL (T-ALL); n2, read-out: ALL-SILL (T-ALL) IC50 n2): 0.86 nM | GI50 (ncih1436; Homo sapiens, NCI-H1436, 120 h): 0.000508 µM | GI Amax ncih1436 (ncih1436): −94.5 | IC50 (DND-41 cells; DND41, experiment n1, read-out: DND41 CTG 72 h IC50 nM n1): 0.31 nM | IC50 (DND-41 cells; DND41, experiment n2, read-out: DND41 CTG 72 h IC50 nM n2): 0.2 nM | IC50 (DND-41 cells; DND41, mean of n1 and n2, read-out: DND41 CTG 72 h IC50 nM Mean of n1 and n2): 0.26 nM
